Source: paper PMC11887051, “Discovery of ONO-2920632 (VU6011887): A Highly Selective and CNS Penetrant TREK-2 (TWIK-Related K+ Channel 2) Preferring Activator In Vivo Tool Compound” (ACS Chemical Neuroscience, 2025)

Experiments:
[1] = rat predicted hepatic clearance (hepatic microsomes); type: in vitro ADME
Procedure: (§1) Intrinsic clearance: Human or rat hepatic microsomes (0.5 mg/mL) and 1 µM test compound were incubated in 100 mM potassium phosphate pH 7.4 buffer with 3 mM MgCl2 at 37 °C with constant shaking. After a 5 min preincubation, the reaction was initiated by the addition of NADPH (1 mM). At selected time intervals (0, 3, 7, 15, 25, and 45 min), aliquots were taken and subsequently placed into a 96-well plate containing cold acetonitrile with internal standard (50 ng/mL carbamazepine). Plates were then centrifuged at 3000 rcf (4 °C) for 10 min, and the supernatant was transferred to a separate 96-well plate and diluted 1:1 with water for LC/MS/MS analysis. The in vitro half-life ( 1/2, min, Eq. 1), intrinsic clearance (CLint, mL/min/kg, Eq. 2), and subsequent predicted hepatic clearance (CLhep, mL/min/kg, Eq. 3) was determined employing the […]
(§2) where k represents the slope from linear regression analysis of the natural log percent remaining of a test compound as a function of incubation time […]
(§3) (2) CLint = in vitroT1/2 x mg microsomes x gram liver x kg body wt ascale-up factors: of 20 (human) or 45 (rat) […]
(§4) where Qh (hepatic blood flow, mL/min/kg) is 21 (human) or 70 (rat).
(§5) LC/MS/MS Bioanalysis of Samples from Plasma Protein Binding and Intrinsic Clearance […]
(§6) Samples were analyzed on a Thermo Electron TSQ Quantum Ultra triple quad mass spectrometer (San Jose, CA) via electrospray ionization (ESI) with two Themo Electron Accella pumps (San Jose, CA), and a Leap Technologies CTC PAL autosampler (Carrboro, NC). Analytes were separated by gradient elution on a dual column system with two Thermo Hypersil Gold (2.1 x 30 mm, 1.9 µm) columns (San Jose, CA) thermostated at 40 °C. HPLC mobile phase A was 0.1% formic acid in water and mobile phase B was 0.1% formic acid in acetonitrile. The gradient started […]
for 0.2 min; returned to 10% B in 0.1 min. The total run time was 1.3 min and the HPLC flow rate was 0.8 mL/min. While pump 1 ran the gradient method, pump 2 equilibrated the alternate column isocratically at 10% B. Compound optimization, data collection, and processing was performed using Thermo Electron's QuickQuan software (v2.3) and Xcalibur (v2.0.7 SP1).

TREK-2 = target: T1, TREK-2 (Homo sapiens, UniProt P57789); assay: TREK-2 thallium flux assay (hTREK-2/HEK); type: cell-based; set-up: expressed in transfected cells; host or cells: HEK293; details: for Emax: % activation relative to 10 µM BL-1249; for Fold TREK-2: TREK-2 preference over TREK-1, thallium flux
T1 sequence (P57789 1-538): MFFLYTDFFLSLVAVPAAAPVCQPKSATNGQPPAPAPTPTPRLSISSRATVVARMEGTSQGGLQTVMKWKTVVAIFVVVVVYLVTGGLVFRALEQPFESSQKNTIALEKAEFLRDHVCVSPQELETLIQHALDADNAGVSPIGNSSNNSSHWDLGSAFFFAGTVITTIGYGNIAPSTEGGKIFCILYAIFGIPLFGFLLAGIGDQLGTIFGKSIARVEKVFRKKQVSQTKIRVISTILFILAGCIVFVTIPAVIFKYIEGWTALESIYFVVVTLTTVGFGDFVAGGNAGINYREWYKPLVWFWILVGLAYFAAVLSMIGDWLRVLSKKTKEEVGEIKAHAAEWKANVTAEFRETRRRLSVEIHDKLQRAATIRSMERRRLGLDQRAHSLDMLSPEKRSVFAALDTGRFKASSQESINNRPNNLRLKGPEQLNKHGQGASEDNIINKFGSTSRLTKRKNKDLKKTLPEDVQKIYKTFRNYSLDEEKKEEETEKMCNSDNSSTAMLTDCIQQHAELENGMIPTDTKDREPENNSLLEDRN
Procedure: Procedures for Biological Experiments
TREK-1 and TREK-2 thallium flux assay protocol […]
HEK293 cells stably expressing human TREK-2 (hTREK-2/HEK) were constructed at Ono. hTREK-1/CHO or hTREK-2/HEK were plated in 384-well plates at a density of 1.0x10^4 cells/well or 2.0x10^4 cells/well, respectively, and cultured overnight. After the wash by HBSS + 20 mM HEPES buffer, cells were loaded with Thallos dye for 1 hour at room temperature. After the wash […]
dissolved with HBSS + 20mM HEPES buffer were added to each well. After 10 minutes incubation at room temperature, thallium stimulus buffer were added to each well and the fluorescent intensity are measured by Panoptic. The final thallium concentration was 0.36 mM in […]
TREK-1 or 0.24 mM in TREK-2, respectively. […]

[2] = mouse predicted hepatic clearance; type: in vitro ADME
Procedure: as §1, §2, §3, §4, §5, §6
for 0.2 min; returned to 10% B in 0.1 min. The total run time was 1.3 min and the HPLC flow rate was 0.8 mL/min. […]

rat CLhep (predicted hepatic clearance) [1] [mL/min/kg]	EC50 (TREK-2) [nM]	Emax (TREK-2) [%]	Fold TREK-2 (TREK-2) [fold]	mouse CLhep (predicted hepatic clearance) [2] [mL/min/kg]	Structure (SMILES)
17.4	3200	155	~3		CS(=O)(=O)Nc1ccc(C(=O)NCc2ccc(Cl)cc2Cl)cc1 [Compound 13]
	730	183		33.0	O=C(NCc1ccc(Br)cc1Cl)c1ccc(-c2ncn[nH]2)cc1 [Compound 14a]
5.7	150	160	25.3	30.5	Cc1cc(OC(F)(F)F)ccc1CNC(=O)c1ccc2ncnn2c1 [Compound 19a]

Structure (SMILES)	rat CLhep (predicted hepatic clearance) [1] [mL/min/kg]	EC50 (TREK-2) [nM]	Emax (TREK-2) [%]	Fold TREK-2 (TREK-2) [fold]	mouse CLhep (predicted hepatic clearance) [2] [mL/min/kg]
O=C(NCc1ccc(OC(F)(F)F)cc1F)c1ccc2ncnn2c1 [Compound 19b]	2.9	300	184	9.3	17.8
